Test [1] deals with T1, RnfG (Methanosarcina acetivorans, UniProt Q8TSY2).
T1 construct: full-length membrane subunit with C-terminal His6 tag (vector leader removed), made in E. coli LMG194, purified from membranes in dodecyl maltoside; isolated subunit of the Rnf complex
Kind of test: UV-visible absorbance of purified protein; UV fluorescence in SDS-PAGE gel; boiling and TCA treatment. The note with it: covalent (flavin assigned as FMN, attached at Thr166); 25 µM protein, 25 mM Tris-HCl pH 8. In kind it is binding.

Test [2] addresses T2, RnfG (Methanosarcina acetivorans, UniProt Q8TSY2, T166G).
T2 construct: full-length membrane subunit with C-terminal His6 tag (vector leader removed), made in E. coli LMG194, purified from membranes in dodecyl maltoside; isolated subunit of the Rnf complex
Kind of test: protein colour and UV fluorescence of the purified variant. In kind it is binding. Conditions: removal of the covalent FMN attachment residue.

T1 sequence (Q8TSY2 whole entry): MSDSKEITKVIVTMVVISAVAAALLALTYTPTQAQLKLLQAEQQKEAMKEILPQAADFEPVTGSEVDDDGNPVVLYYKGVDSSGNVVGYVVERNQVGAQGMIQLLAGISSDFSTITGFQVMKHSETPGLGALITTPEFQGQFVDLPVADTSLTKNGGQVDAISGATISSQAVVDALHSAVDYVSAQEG
T2 sequence (Q8TSY2 whole entry T166G): as the sequence (Q8TSY2 whole entry) above, with T166G counted along it

Turning to `Cc1cc2nc3c(=O)[nH]c(=O)nc-3n(C[C@H](O)[C@H](O)[C@H](O)COP(=O)(O)O)c2cc1C` [FMN], at RnfG [1], the “molar ratio of flavin” value was 0.84 mol/mol. The colour and fluorescence result on RnfG [2] is “The purified variant was colorless and failed to fluoresce under UV illumination”.

(Values after publication PMC4023990, “Characterization of the RnfB and RnfG Subunits of the Rnf Complex from the Archaeon Methanosarcina acetivorans” (PLoS ONE, 2014).)
